According to ChEMBL document CHEMBL3822409, “Synthesis and antitubercular activity of new 1,3,4-oxadiazoles bearing pyridyl and thiazolyl scaffolds” (Bioorg Med Chem Lett, 2016):
Values after ≈ are worked out from the molar mass of the structure shown.

Tests used:
[1] = tested on: Mycobacterium tuberculosis variant bovis BCG; assay: Antimycobacterial activity against active stage of Mycobacterium bovis BCG ATCC 35734 measured on day 8 by nitrate reductase assay; format: functional, organism-based; conditions: ATCC 35734, 192 h
[2] = tested on: Mycobacterium tuberculosis variant bovis BCG; assay: Antimycobacterial activity against dormant stage of Mycobacterium bovis BCG ATCC 35734 measured on day 12 by nitrate reductase assay; format: functional, organism-based; conditions: ATCC 35734, 288 h

SMILES	IC50 [1]	MIC [1]	IC50 [2]	MIC [2]
Cc1nc(-c2cccnc2)sc1-c1nnc(-c2ccccc2)o1	> 30 mg/L	> 30 mg/L	> 30 mg/L	> 30 mg/L
Cc1nc(-c2cccnc2)sc1-c1nnc(-c2ccc(O)cc2)o1	> 30 mg/L	> 30 mg/L	> 30 mg/L	> 30 mg/L
Cc1nc(-c2cccnc2)sc1-c1nnc(-c2ccc([N+](=O)[O-])cc2)o1	22.5 mg/L (≈ 61.6 µM)	> 30 mg/L	24.9 mg/L (≈ 68.2 µM)	> 30 mg/L
Cc1nc(-c2cccnc2)sc1-c1nnc(-c2cccc(Cl)c2Cl)o1	> 30 mg/L	> 30 mg/L	> 30 mg/L	> 30 mg/L
COc1ccccc1-c1nnc(-c2sc(-c3cccnc3)nc2C)o1	1.46 mg/L (≈ 4.17 µM)	2.65 mg/L (≈ 7.56 µM)	1.8 mg/L (≈ 5.14 µM)	3.95 mg/L (≈ 11.3 µM)
Cc1ccc(-c2nnc(-c3sc(-c4cccnc4)nc3C)o2)cc1	14.2 mg/L (≈ 42.6 µM)	> 30 mg/L	15.2 mg/L (≈ 45.5 µM)	> 30 mg/L
Cc1nc(-c2cccnc2)sc1-c1nnc(-c2ccncc2)o1	24.7 mg/L (≈ 76.8 µM)	40 mg/L (≈ 125 µM)	28 mg/L (≈ 87 µM)	42.2 mg/L (≈ 131 µM)
Cc1ccccc1-c1nnc(-c2sc(-c3cccnc3)nc2C)o1	2.69 mg/L (≈ 8.04 µM)	5.84 mg/L (≈ 17.5 µM)	1.44 mg/L (≈ 4.31 µM)	4.91 mg/L (≈ 14.7 µM)
Cc1nc(-c2cccnc2)sc1-c1nnc(-c2ccccc2Cl)o1	2.62 mg/L (≈ 7.38 µM)	5.16 mg/L (≈ 14.5 µM)	1.47 mg/L (≈ 4.14 µM)	4.77 mg/L (≈ 13.4 µM)
Cc1cccc(-c2nnc(-c3sc(-c4cccnc4)nc3C)o2)c1	> 30 mg/L	> 30 mg/L	> 30 mg/L	> 30 mg/L
Cc1nc(-c2cccnc2)sc1-c1nnc(-c2ccc(Br)cc2)o1	> 30 mg/L	> 30 mg/L	> 30 mg/L	> 30 mg/L
Cc1nc(-c2cccnc2)sc1-c1nnc(Cc2ccccc2)o1	7.2 mg/L (≈ 21.5 µM)	11.3 mg/L (≈ 33.8 µM)	5.26 mg/L (≈ 15.7 µM)	10.4 mg/L (≈ 31 µM)
Cc1nc(-c2cccnc2)sc1-c1nnc(-c2cccnc2)o1	24.5 mg/L (≈ 76.2 µM)	40.4 mg/L (≈ 126 µM)	56.3 mg/L (≈ 175 µM)	94.9 mg/L (≈ 295 µM)
Cc1nc(-c2cccnc2)sc1-c1nnc(-c2ccccc2[N+](=O)[O-])o1	1.68 mg/L (≈ 4.6 µM)	2.56 mg/L (≈ 7.01 µM)	3.55 mg/L (≈ 9.72 µM)	5.89 mg/L (≈ 16.1 µM)
Cc1nc(-c2cccnc2)sc1-c1nnc(-c2ccc(Cl)cc2)o1	> 30 mg/L	> 30 mg/L	> 30 mg/L	> 30 mg/L
CO[C@H]1/C=C/O[C@@]2(C)Oc3c(C)c(O)c4c(O)c(c(/C=N/N5CCN(C)CC5)c(O)c4c3C2=O)NC(=O)/C(C)=C\C=C\[C@H](C)[C@H](O)[C@@H](C)[C@@H](O)[C@@H](C)[C@H](OC(C)=O)[C@@H]1C [RIFAMPIN]	0.003 mg/L (≈ 0.00365 µM)	0.08 mg/L (≈ 0.0972 µM)	0.0027 mg/L (≈ 0.00328 µM)	0.05 mg/L (≈ 0.0608 µM)
